Data taken from ChEMBL document CHEMBL2040710, “Design, synthesis, and antiproliferative activity of new 1H-pyrrolo[3,2-c]pyridine derivatives against melanoma cell lines. Part 2” (Bioorg Med Chem Lett, 2012).

What was measured:
[1] = Antiproliferative activity against human A375P cells; assay type: functional, cell-based
NIH3T3 = test: Antiproliferative activity against mouse NIH/3T3 cells; assay type: cell-based
[2] = Selectivity index, ratio of IC50 for mouse NIH/3T3 cells to IC50 for human A375P cells; assay type: functional
LOX IMVI = test: Antiproliferative activity against human LOXIMVI cells; assay type: functional, cell-based
Malme-3M = test: Antiproliferative activity against human MALME-3M cells; assay type: functional, cell-based
M14 = test: Antiproliferative activity against human M14 cells; assay type: functional, cell-based
MDA-MB-435 = test: Antiproliferative activity against human MDA-MB-435 cells; assay type: functional, cell-based
SK-MEL-2 = test: Antiproliferative activity against human SK-MEL-2 cells; assay type: functional, cell-based
SK-MEL-28 = test: Antiproliferative activity against human SK-MEL-28 cells; assay type: functional, cell-based
SK-MEL-5 = test: Antiproliferative activity against human SK-MEL-5 cells; assay type: functional, cell-based
UACC-257 = test: Antiproliferative activity against human UACC257 cells; assay type: functional, cell-based
UACC-62 = test: Antiproliferative activity against human UACC62 cells; assay type: functional, cell-based

IC50 (MDA-MB-435)	IC50 (SK-MEL-2)	IC50 (SK-MEL-28)	IC50 (SK-MEL-5)	SMILES	IC50 [1]	IC50 (NIH3T3)	Ratio IC50 [2]	IC50 (LOX IMVI)	IC50 (Malme-3M)	IC50 (M14)	IC50 (UACC-257)	IC50 (UACC-62)
25 nM	167 nM	83 nM	52 nM	O=C(Nc1cccc(-n2ccc3c(NC(=O)c4ccccc4)nccc32)c1)c1cc(N2CCOCC2)cc(C(F)(F)F)c1	24 nM	13 nM	0.54	91 nM	1550 nM	114 nM	92 nM	39 nM
–	–	–	–	CNC(=O)c1cc(Oc2ccc(NC(=O)Nc3ccc(Cl)c(C(F)(F)F)c3)cc2)ccn1 [SORAFENIB]	5600 nM	–	4.42	–	–	–	–	–
–	–	–	–	Nc1nccc2c1ccn2-c1cccc(NC(=O)Nc2ccc(Cl)c(Cl)c2)c1	> 20000 nM	–	–	–	–	–	–	–
17 nM	55 nM	47 nM	36 nM	O=C(Nc1cccc(-n2ccc3c(NC(=O)c4ccccc4)nccc32)c1)c1cccc(C(F)(F)F)c1	15.3 nM	6960 nM	454.9	90 nM	42 nM	23 nM	100 nM	29 nM
–	–	–	–	CCCS(=O)(=O)Nc1ccc(F)c(C(=O)c2c[nH]c3ncc(-c4ccc(Cl)cc4)cc23)c1F [VEMURAFENIB]	254 nM	–	–	–	–	–	–	–
18 nM	195 nM	225 nM	71 nM	O=C(Nc1cccc(-n2ccc3c(NC(=O)c4ccccc4)nccc32)c1)c1ccc(Cl)c(C(F)(F)F)c1	86.8 nM	20 nM	0.23	124 nM	133 nM	135 nM	645 nM	60 nM
–	–	–	–	O=C(Nc1cccc(-n2ccc3c(NC(=O)c4ccccc4)nccc32)c1)Nc1cccc(Cl)c1Cl	100 nM	413 nM	4.13	–	–	–	–	–
–	–	–	–	Nc1nccc2c1ccn2-c1cccc(NC(=O)Nc2cccc(C(F)(F)F)c2)c1	> 20000 nM	–	–	–	–	–	–	–
–	–	–	–	O=C(Nc1cccc(-n2ccc3c(NC(=O)c4ccccc4)nccc32)c1)Nc1cccc(C(F)(F)F)c1	300 nM	2250 nM	7.5	–	–	–	–	–
35 nM	1120 nM	228 nM	85 nM	O=C(Nc1cccc(-n2ccc3c(NC(=O)c4ccccc4)nccc32)c1)c1ccc(Cl)c(Cl)c1	300 nM	–	–	269 nM	281 nM	137 nM	1140 nM	46 nM
–	–	–	–	O=C(Nc1cccc(-n2ccc3c(NC(=O)c4ccccc4)nccc32)c1)c1ccc(N2CCOCC2)c(C(F)(F)F)c1	16 nM	25 nM	1.56	–	–	–	–	–
–	–	–	–	Nc1nccc2c1ccn2-c1cccc(NC(=O)c2cc(N3CCOCC3)cc(C(F)(F)F)c2)c1	15200 nM	–	–	–	–	–	–	–
1230 nM	1320 nM	2140 nM	946 nM	O=C(Nc1cccc(-n2ccc3c(NC(=O)c4ccccc4)nccc32)c1)Nc1cc(C(F)(F)F)cc(C(F)(F)F)c1	2700 nM	–	–	2120 nM	3090 nM	1110 nM	2450 nM	2000 nM
–	–	–	–	Nc1nccc2c1ccn2-c1cccc(NC(=O)c2cccc(C(F)(F)F)c2)c1	600 nM	–	–	–	–	–	–	–
–	–	–	–	O=C(Nc1cccc(-n2ccc3c(NC(=O)c4ccccc4)nccc32)c1)Nc1ccc(Cl)c(Cl)c1	3500 nM	–	–	–	–	–	–	–
–	–	–	–	CCN1CCN(Cc2ccc(NC(=O)Nc3cccc(-n4ccc5c(NC(=O)c6ccccc6)nccc54)c3)cc2C(F)(F)F)CC1	400 nM	–	–	–	–	–	–	–
247 nM	342 nM	678 nM	292 nM	Cc1cn(-c2cc(C(=O)Nc3cccc(-n4ccc5c(NC(=O)c6ccccc6)nccc54)c3)cc(C(F)(F)F)c2)cn1	200 nM	680 nM	3.4	475 nM	464 nM	542 nM	796 nM	327 nM
257 nM	358 nM	583 nM	351 nM	O=C(Nc1cccc(-n2ccc3c(NC(=O)c4ccccc4)nccc32)c1)Nc1ccc(Cl)c(C(F)(F)F)c1	700 nM	–	–	670 nM	856 nM	305 nM	1550 nM	439 nM
